Experimental data from article PMC5263201, “GABAA receptor occupancy by subtype selective GABAAα2,3 modulators: PET studies in humans” (Psychopharmacology, 2016).
Several values for one entry are separate records, joined by “and”; a condition that tells them apart may be missing. Identical values can stand only once. Like-named read-outs stand apart in the source and are kept apart here.

Assays:
[1] = Plasma pharmacokinetics after single oral doses in the PET studies; type: in vivo, human; conditions: for C av,PET: average plasma concentration at time of PET
Method: Venous blood samples for determination of drug plasma concentrations were collected at approximately 15 min before [^11C]flumazenil injection and at 15 and 30 min and 3, 4, 6, 8, 10, 12, 16, 24, 36, and 48 h after drug administration, including three samples during PET measurement, at 1, 1.30, and 2 h after drug administration.
Calculations of the pharmacokinetic parameters included the maximum plasma concentration (C max), the time to the maximum plasma concentration (T max), and the average drug plasma concentration during the PET measurement (C av,PET) (division of the partial area corresponding to the start and end times of PET assessment, AUCPET, by the duration of the PET measurement). The pharmacokinetic calculations were performed using non-compartmental analysis using WinNonlin™, Pharsight Corporation.

[2] = parameters: method as in Chen et al. 2014, 2015; conditions: neurophysiological test battery; ref Chen et al. 2014, 2015; cited from earlier work
[3] = Brain exposure in animals; type: in vivo
[4] = system: approximately 160 different ligand binding assays; experiment: Battery of approximately 160 different ligand binding assays at 10 μM; conditions: active = ≥50% inhibition with an IC50 <1µM
[5] = system: GABAA receptors (benzodiazepine binding site); experiment: PET with [11C]flumazenil (HRRT): GABAA receptor occupancy; type: in vivo, human; conditions: for Occupancy (%) CER: cerebellum; for Occupancy (%) CER / Occupancy (%) OC / Occupancy (%) PUT / Occupancy (%) AMG: 1 h after drug administration; for Occupancy (%) OC: occipital cortex; for Occupancy (%) PUT: putamen; for Occupancy (%) AMG: amygdala
Method: Two separate open-label phase I PET studies were conducted in 2008–2009.
The initial study design included two sequential panels, with two subjects in each. The first panel was intended to obtain initial receptor occupancy values, to be used for dose selection in the second panel. […] The studies followed an adaptive design, i.e., doses and PET measurements were adjusted depending on the results of preceding measurements. […] To optimize quantification of the relationship between AZ6280 exposure and receptor occupancy, the number of subjects with the highest 40 mg dose was increased (Fig. 1).
The head of the subject was fixed using individual plaster helmet. A sterile physiological phosphate buffer (pH 7.4) solution containing [^11C]flumazenil was injected intravenously as a bolus during 2 s, immediately followed by flush with 10 ml saline. The injected radioactivity for [^11C]flumazenil was in the range of 330–350 MBq, (340 (9) MBq, mean, SD) in the study 1 and in the range of 317–363 MBq (335 (16) MBq) in the study 2. The specific radioactivity of the radioligand at time of injection ranged from 310 to 1465 GBq/μmol (730 (414) GBq/μmol, mean, SD) and from 464 to 1879 GBq/μmol (977 (424) GBq/μmol, mean, SD), for study 1 and study 2, respectively.
PET examinations were performed over 63 min (HRRT; Siemens/CTI). List mode data were reconstructed using the ordinary Poisson 3D ordered subset estimation maximization algorithm, with 10 iterations and 16 subsets including modeling of the point spread function (Varrone et al. [2009]) into a 4D PET image containing 33 consecutive time frames (9 × 10 s, 2 × 15 s, 3 × 20 s, 4 × 30 s, 4 × 60 s, 4 × 180 s, 7 × 360 s) with a 3D array of 256 × 256 × 207 voxels having a size of 1.22 × 1.22 × 1.22 mm.
The anatomical brain regions were delineated manually on the MR images using in-house image analysis software. The regions included cortical and striatal subregions, thalamus, cerebellum, limbic regions, pons, and whole brain. The following four regions were selected in the final analysis: The occipital cortex and cerebellum were chosen because of the highest GABAA receptor binding by [^11C]flumazenil and good imaging statistics and preferential distribution of α1/α2 receptor subtypes; the amygdala was chosen because of its role in the brain circuits involved in anxiety and putamen for preferential α1/α2/α3 versus α5 receptor subtypes (Lingford-Hughes et al. [2002]; Fatemi et al. [2013]; Waldvogel and Faull [2015]). For the pons, the ROI was drawn on horizontal projection on the six central slices. […] The concentration of radioactivity in each ROI, calculated for each sequential time frame and corrected for ^11C decay, was plotted versus time (TACs).
An index of neuronal GABAA receptor density or binding potential (BPND) was calculated using the simplified reference tissue model (Lammertsma and Hume [1996]) and pons as a reference region. The calculated receptor occupancy (%) was then correlated to drug exposure according to the following equation:1 Occupancy=Occmax×Cav,PET/Ki,plasma+Cav,PET
where Occmax is the maximal occupancy induced by drug, C av,PET is the total drug plasma concentration, and K i,plasma is the inhibition constant corresponding to the drug plasma concentration required for half-maximum receptor occupancy. Non-linear least squares curve fitting of the relationship between drug plasma concentration and receptor occupancy was performed using Matlab R2007b (http://de.mathworks.com). Regional data were fitted simultaneously to obtain a single estimate of K i,plasma and regionally different estimates of Occmax. Best fit estimate and confidence interval (95% CI) were obtained on the logarithmic scale.

[6] = VAS alertness-sedation, Modified Wilson Sedation Scale, DSST; ref NCT00681317 and NCT00681915; cited from earlier work
[7] = Safety and tolerability in the PET studies; type: in vivo, human
Text: Safety and tolerability assessments included records of adverse events, vital signs (blood pressure, heart rate), Allen’s test, ECG, clinical chemistry, hematology assessments, and urinalysis.

human MT1 receptor = human MT1 receptor (Homo sapiens, UniProt P48039); experiment: MT1 receptor GTPγS studies; type: biochemical
Sequence of human MT1 receptor (P48039 whole entry): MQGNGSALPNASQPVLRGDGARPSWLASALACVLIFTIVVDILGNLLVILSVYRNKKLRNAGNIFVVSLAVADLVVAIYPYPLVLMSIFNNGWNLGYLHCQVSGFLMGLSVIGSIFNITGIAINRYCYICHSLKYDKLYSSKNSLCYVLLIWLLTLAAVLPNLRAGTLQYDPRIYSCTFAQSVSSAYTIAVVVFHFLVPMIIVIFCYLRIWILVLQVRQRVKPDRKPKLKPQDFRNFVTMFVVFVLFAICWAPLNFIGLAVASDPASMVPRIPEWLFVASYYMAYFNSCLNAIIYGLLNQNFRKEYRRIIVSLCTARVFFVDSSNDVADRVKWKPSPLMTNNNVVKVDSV

[8] = AZD7325 single oral dose 0.2 mg

Compound: CCCNC(=O)c1nnc2c(-c3c(F)cccc3OC)cccc2c1N [AZD7325]
- C av,PET [1, 8]: 1.74 nM and 2.93 nM
- Cmax ([1]; AZD7325 single oral dose 0.2 mg, individual subjects, read-out: C max): 4.12 nM
- T max ([1]; AZD7325 single oral dose 1 mg, individual subjects): 1.0 h
- Cmax ([1]; AZD7325 single oral dose 1 mg, individual subjects, read-out: C max): 5.19 nM and 12.8 nM
- T max ([1]; AZD7325 single oral dose 2 mg, individual subjects): 1.1 h
- Cmax ([1]; AZD7325 single oral dose 2 mg, individual subjects, read-out: C max): 5.19 nM and 21.4 nM
- C av,PET ([1]; AZD7325 single oral dose 5 mg): 46.28 nM and 39.22 nM
- T max ([1]; AZD7325 single oral dose 5 mg, individual subjects): 1.0 h
- Cmax ([1]; AZD7325 single oral dose 5 mg, individual subjects, read-out: C max): 44 nM
- Cmax ([1]; AZD7325 single oral dose 20 mg, individual subjects, read-out: C max): 302 nM
- C av,PET ([1]; AZD7325 single oral dose 30 mg): 265.25 nM
- Cmax ([1]; human, plasma, oral, range over all doses and subjects, read-out: range for peak exposures, Cmax): 0.81 to 109 ng/mL
- Tmax ([1]; human, plasma, po, 0.2 mg, AZD7325 single oral dose 0.2 mg, individual subjects): 0.5 h
- Cmax ([1]; human, plasma, po, 0.2 mg, AZD7325 single oral dose 0.2 mg, individual subjects, read-out: C max): 2.29 nM
- Tmax ([1]; human, plasma, po, 1 mg, AZD7325 single oral dose 1 mg, individual subjects): 1.8 h
- Tmax ([1]; human, plasma, po, 2 mg, AZD7325 single oral dose 2 mg, individual subjects): 1.3 h
- Cmax ([1]; human, plasma, po, 5 mg, AZD7325 single oral dose 5 mg, individual subjects, read-out: C max): 50.2 nM
- Tmax ([1]; human, plasma, po, 20 mg, AZD7325 single oral dose 20 mg, individual subjects): 3 h
- Cmax ([1]; human, plasma, po, 20 mg, AZD7325 single oral dose 20 mg, individual subjects, read-out: C max): 213 nM
- Tmax ([1]; human, plasma, po, 30 mg, AZD7325 single oral dose 30 mg, individual subject): 2.2 h
- Cmax ([1]; human, plasma, po, 30 mg, AZD7325 single oral dose 30 mg, individual subject, read-out: C max): 308 nM
- receptor occupancy up to which no cognitive or hypnotic side effects were observed [2]: up to 80%
- brain exposure [3]: good brain exposure
- activity in the battery of ligand binding assays [4]: only assays in which either compound was active were the melatonin Type 1 and Type 2 receptors
- calculated GABAA receptor occupancy at the highest doses ([5]; 20–30 mg AZD7325, occipital cortex and cerebellum): over 80%
- Occupancy (%) CER [5, 8]: −5% and 3%
- Occupancy (%) OC [5, 8]: −8% and 0.5%
- Occupancy (%) CER ([5]; AZD7325 single oral dose 1 mg): 43% and 25%
- Occupancy (%) CER ([5]; AZD7325 single oral dose 2 mg): 45% and 60%
- Occupancy (%) OC ([5]; AZD7325 single oral dose 2 mg): 24% and 42%
- Occupancy (%) PUT ([5]; AZD7325 single oral dose 2 mg): 28% and 26%
- Occupancy (%) AMG ([5]; AZD7325 single oral dose 5 mg): 16% and 26%
- Occupancy (%) CER ([5]; AZD7325 single oral dose 5 mg): 85% and 82%
- Occupancy (%) OC ([5]; AZD7325 single oral dose 5 mg): 77% and 67%
- Occupancy (%) PUT ([5]; AZD7325 single oral dose 5 mg): 40% and 37%
- Occupancy (%) CER ([5]; AZD7325 single oral dose 20 mg): 77% and 95%
- Occupancy (%) OC ([5]; AZD7325 single oral dose 20 mg): 75% and 85%
- Occupancy (%) PUT ([5]; AZD7325 single oral dose 20 mg): 41% and 46%
- Occupancy (%) AMG ([5]; AZD7325 single oral dose 30 mg): 37%
- Occupancy (%) CER ([5]; AZD7325 single oral dose 30 mg): 89%
- Occupancy (%) OC ([5]; AZD7325 single oral dose 30 mg): 82%
- Occupancy (%) PUT ([5]; AZD7325 single oral dose 30 mg): 52%
- relationship between dose and alertness or cognitive performance [6]: no significant relationship
- receptor occupancy at the doses/exposure at which adverse events were reported ([7]; AZD7325 5, 20 and 30 mg, AZD6280 20 mg and above): > 70%
- high receptor occupancy reached without obvious sedative effects ([7]; PET studies): > 70%
- CNS-related AEs ([7]; reported by three subjects at 20 and 30 mg and in one subject both at 20 and at 5 mg): dizziness, feeling hot, anhedonia, and hypoesthesia
- Emax (human MT1 receptor): 90%
